The record followed here is US12134785B2, “Differentiation of pluripotent stem cells to form renal organoids” (The University of Queensland, priority 2014, dated 2024).

The test system of assay [1] is human iPSC line CRL1502 (clone#C32). As to the kind of experiment: RA signaling control of A-P fate patterning of the IM (RA or AGN193109 with FGF9, monolayer differentiation, immunofluorescence). It counts as cell-based. The settings on record: day 18. The method, then:
(§1) All experiments presented used the previously described wildtype human iPSC line CRL1502 (clone#C32) generated using episomal reprogramming^28. Undifferentiated human iPSCs were maintained on the mouse embryonic fibroblasts (MEFs) (Millipore) as a feeder layer with human ES cell (hES) medium as described previously^1. Cells were authenticated and tested for the mycoplasma infection^28. Human iPSCs were plated on a Matrigel-coated (Millipore) culture dish and cultured in MEF-conditioned hES medium (MEF-CM) until reaching to 60-100% confluent. Then, cells were again plated on a Matrigel-coated at 5,000 cells/cm^2 in MEF-CM. Next day, cells reached to 40-50% of confluent, cells were treated with 8 μM of CHIR99021 in APEL basal medium ([…] Technologies) supplemented with Antibiotic-Antimycotic (Life Technologies) for 2-5 days, followed by FGF9 (200 ng mL^−1) and Heparin (1 μg mL^−1) for another […], with changing medium every second day. At day 7, cells were collected and dissociated into single cells using Trypsin or TrypLE select (Life Technologies). Cells (0.5×10^6) were spun down at ×400 g for 2 min to form a pellet and then transferred onto a Transwell 0.4 μm pore polyester membrane (#CLS3450 Corning). Pellets were treated with 5 μM of CHIR99021 in APEL for 1 h, and then cultured with FGF9 (200 ng mL^−1) and Heparin (1 μg mL^−1) for 5 days, followed by another 6-13 days in APEL basal medium, with changing medium three times a week. Culture medium should not exceed above a membrane. For the differentiation in monolayer cultures, cells post CHIR99021 induction were treated by FGF9 (200 ng mL^−1) and Heparin (1 μg mL^−1) for 10 days, followed by APEL basal medium for another 6 days. In some experiments, RA (0.1 μM) or AGN193109 (5 μM) were added to FGF9 medium. A step-by step protocol describing kidney organoid generation was provided in Example 1.
For monolayer cells, antibody staining was performed as described previously^1. For the kidney organoid, organoids were fixed with 2% paraformaldehyde in PBS for 20 min at 4° C. followed by 3 times wash with PBS. […]

The next assay has as its system IM cells. As to the kind of experiment: Preliminary data on differentiation of IM cells at different RA / AGN193109 concentrations. The assay is classed as cell-based. The settings on record: higher concentrations of AGN193109.
The next assay concerns kidney organoids. As to the kind of experiment: Regulation of nephrogenesis in the kidney organoid (CHIR99021 pulse, FGF9). The assay is classed as cell-based, human. The method, then: as §1, with “Pellets were treated with 5 μM of CHIR99021 in APEL for 1 h, and then cultured with FGF9 (200 ng mL^−1) and Heparin (1 μg mL^−1) for 5 days, followed by another 6-13 days in APEL basal medium, with changing medium three times a week.” left out

Assay [2] relates to human iPSC line CRL1502 (clone#C32). In words: Duration of initial Wnt signaling (CHIR99021) prior to FGF9: AI/PI markers by qPCR and immunofluorescence. The assay is classed as cell-based. The method, then:
as §1
For monolayer cells, antibody staining was performed as described previously^1. For the kidney organoid, organoids were fixed with 2% paraformaldehyde in PBS for 20 min at 4° C. followed by 3 times wash with PBS. Then organoids were blocked with 10% donkey serum, 0.3% Triton X/PBS for 2-3 h at room temperature and incubated with primary antibodies overnight at 4° C. After 5 times washing with 0.1% Triton X/PBS. secondary antibodies were incubated for 4 h at room temperature. The following antibodies and dilutions were used: rabbit anti-PAX2 (1:300, #71-6,000, Zymed Laboratories), goat anti-SIX1 (1:300, #sc-9709, Santa Cruz Biotechnology), rabbit anti-SIX2 (1:300, #11562-1-AP, Proteintech), mouse anti-ECAD (1:300, #610181. BD Biosciences), rabbit anti-WT1 (1:100, #sc-192, Santa Cruz Biotechnology), mouse anti-HOXD11 (1:300, #SAB1403944, Sigma-Aldrich), goat anti-GATA3 (1:300, AF2605, R&D Systems). rabbit anti-JAG1 (1:300, #ab7771, Abcam), goat anti-Cubilin (1:150, #sc-20607. Santa Cruz Biotechnology), sheep anti-NPHS1 (1:300, AF4269, R&D Systems), LTL-biotin-conjugated (1:300, B-1325, Vector Laboratories), DBA-biotin-conjugated (1:300, B-1035, Vector Laboratories), mouse anti-KRT8 (1:300, #TROMA, DSHB), mouse anti-CD31 (1:300, #555444, BD Pharmingen), rabbit anti-KDR (1:300, #2479, Cell Signaling Technology), goat anti-SOX17 (1:300, #AF1924, R&D Systems), rabbit anti-NG2 (1:300, #AB5320, Merck Millipore), rabbit anti-SMA (1:300, #ab15267. Abcam), mouse anti-PDGFRA (1:200, #556001. BD Pharmingen), rabbit anti-Laminin (1:300, #L9393, Sigma-Aldrich), rabbit anti-UMOD (1:300, #BT-590, Biomedical Technologies), mouse anti-MEIS1 (1:300, #ATM39795, activemotif), goat anti-FOXD1 (1:200, #sc-47585, Santa Cruz Biotechnology) and rabbit anti-cleaved-CASP3 (1:300, #9661, Cell Signaling Technology). Images were taken using a Nikon Ti-U microscope or a Zeiss LSM 780 confocal microscope. All immunofluorescence analyses were successfully repeated more than three times and representative images are shown. […]
On the technique in general: Quantitative PCR measures a nucleic acid by following its amplification.

Where [3] appears, read: longer duration of CHIR99021, day 7.
Where [4] appears, read: shorter duration of CHIR99021, day 7.

As to `Cc1ccc(C2=CCC(C)(C)c3ccc(C#Cc4ccc(C(=O)O)cc4)cc32)cc1` [AGN193109], in assay [1] (3 days CHIR99021 followed by FGF9 + AGN), the “AI specification of early migrating cells” value is reported as “inhibited”. Also, the “induction of the MM lineage” value in assay [1] (AGN193109 (5 μM) with FGF9 after CHIR99021, monolayer) was “enhanced”. The “UE induction (GATA3+PAX2+ECAD+)” value in assay [1] (RA (0.1 μM) or AGN193109 (5 μM) with FGF9 after CHIR99021, monolayer) is listed as “inhibited”. For the same compound, in the assay on IM cells, the “proportion of metanephric mesenchyme cells” value is “relative increase”.
In the case of `Cc1c[nH]c(-c2cnc(NCCNc3ccc(C#N)cn3)nc2-c2ccc(Cl)cc2Cl)n1` [CHIR99021], the nephrogenesis in organoids result in the assay on kidney organoids (5 μM CHIR99021 for 1 h immediately post aggregation vs no pulse) was “promoted nephrogenesis”. For the same compound, the formation of aggregates entry in the assay with kidney organoids (45 minute pulse of high CHIR (5 μM) immediately upon reaggregation) is “enhanced”. Further, the “maximal nephron number per organoid” value with kidney organoids (pulse of CHIR99021 for one hour after forming a pellet) was “required”. Further, in assay [2] (fewer days in CHIR, after 18 days of culture), the “UE induction (GATA3+PAX2+ECAD+)” value was “dominant UE induction”. For the same compound, the “induction of UE and MM in monolayer culture” value in assay [2] (initial 4 days of CHIR99021) was “induction of both the UE and MM”. Moreover, in assay [2] (longer days in CHIR99021), the “expression of the PSM markers TBX6 and T (qPCR)” value is recorded as “Prolonged expression”. Besides, the “induction of MM (PAX2+ECAD−) and its derivatives (PAX2+ECAD+)” value in assay [2] (longer days in CHIR, after 18 days of culture) is “preferential induction of MM”. Further, in assay [2] (longer days of 8 μM CHIR99021, day 7), the “PI markers HOXD11 and EYA1 (qPCR)” value is “increased”. In assay [2] (setting [3]), the “AI (GATA3) by immunofluorescence” value is “less” and the “PI (HOXD11) by immunofluorescence” value is “more”. Moreover, in assay [2] (setting [4]), the “AI (GATA3) by immunofluorescence” value is “more” and the “PI (HOXD11) by immunofluorescence” value is reported as “less”. For the same compound, the “AI markers LHX1 and GATA3 (qPCR)” value in assay [2] (shorter period of 8 μM CHIR99021, day 7) is recorded as “induced”.
